From patent publication US5935966A, “Pyrimidine carboxylates and related compounds and methods for treating inflammatory conditions” (Signal Pharmaceuticals, Inc., priority 1996, dated 1999)

These compounds were tested on NFκB and AP-1 (assay: NFκB and AP-1 luciferase reporter assays in stable Jurkat T-cells (PMA/PHA stimulated)). Settings: Homo sapiens, average of NFκB and AP-1 assays, read-out: ICm (average of the measurements obtained from the NFκB and AP-1 assays).
Type: cell-based, human
Excerpt: Stable human Jurkat T-cells containing an NFκB binding site (from the MHC promoter) fused to a minimal SV-40 promoter driving luciferase expression were used in this experiment. Cells were split to 3×10^5 cells/mL every 2-3 days (cell concentration should not exceed 1×10^6 cells/mL to keep the cells proliferating in log phase). These cells were counted, resuspended in fresh medium containing 10% Serum-Plus at a density of 1×10^6 cells/mL and plated in 96 well round bottom plates (200 μ.LAMBDA. per well) 18 hours prior to starting the experiment.
Compounds of this invention, dissolved in dimethyl sulfoxide (3.3, 0.33 and 0.03 μg/mL), were then added to the 96 well plates containing the cells and the plates were incubated for 0.5 h at 37° C. Then 50 ng/mL of phorbol 12-myristate-13-acetate (PMA) and 1 μg/mL of phytohemagglutinin (PHA) were added to each well and the cells were incubated for an additional 5 h at 37° C. The plates were centrifuged at 2200 RPM for 3 minutes at room temperature and then the medium was removed. To each well was added 60 μL of cell lysis buffer and the plates were left at room temperature for 0.25 h. Then 40 μL of each cell extract was transferred to a black 96 well plate and 50 μL of luciferase substrate buffer was added. Luminescence was immediately measured using a Packard TopCount.
For AP-1, the assay was run as described above for NFκB except stable Jurkat T-cells were used that contained a collagenase promoter driving luciferase expression. In addition, the concentration of PMA used was 5 ng/mL.
The IC50 values reported in Table 3 are the average of the measurements obtained from the NFκB and AP-1 assays described above.

| IC50 [nM] | Compound |
| --- | --- |
| 1000 | CCOC(=O)c1cnc(NN2C(=O)C=C(c3ccccc3)C2=O)nc1C(F)(F)F [Example 40, ETHYL 2-[N-(1'-AMINO-3'-PHENYLMALEIMIDO)]-4-TRIFLUOROMETHYLPYRIMIDINE-5-CARBOXYLATE] |
| 5000 | CCOC(=O)c1cnc(N(C)N2C(=O)C=C(C)C2=O)nc1C(F)(F)F [Example 42, ETHYL 2-[N-(1'-AMINOCITRACONAMIDO)-N-METHYL]-4-TRIFLUOROMETHYLPYRIMIDINE-5-CARBOXYLATE] |
| 400 | CCOC(=O)c1cnc(N(C)N2C(=O)C=C(C)C2=O)nc1-c1ccc(Cl)s1 [Example 68, ETHYL 2-[N-(1'-AMINOCITRACONAMIDO)-N-METHYL]-4-[2'-(5"-HLOROTHIENYL]PYRIMIDINE-5-CARBOXYLATE] |
| 50 | CCOC(=O)c1cnc(N(C)N2C(=O)C=C(C)C2=O)nc1CC [Example 73, ETHYL 2-[N-(1'-AMINOCITRACONAMIDO)-N-METHYL]-4-ETHYLPRYRIMIDINE-5-CARBOXYLATE] |
| 450 | CCCc1nc(N(C(C)=O)N2C(=O)C=C(C)C2=O)ncc1C(=O)OCC [Example 74, ETHYL 2-[N-ACETYL-N-(1'-AMINOCITRACONAMIDO)]-4-PROPYLPYRIMIDINE-5-CARBOXYLATE] |
| 400 | CCOC(=O)c1cnc(N(C(C)=O)N2C(=O)C=C(C)C2=O)nc1C(F)(F)F [Example 75, ETHYL 2-[N-ACETYL-N-(1'-AMINOCITRACONAMIDO)]-4-TRIFLUOROMETHYLPYRIMIDINE-5-CARBOXYLATE] |
| 1300 | COC(=O)c1cnc(NN2C(=O)C=C(C)C2=O)nc1C(F)(F)C(F)(F)F [Example 77, METHYL 2-[N-(1'-AMINOCITRACONAMIDO)]-4-PENTAFLUOROETHYLPYRIMIDINE-5-CARBOXYLATE] |
| 150 | COC(=O)c1cnc(N(C)N2C(=O)C=C(C)C2=O)nc1C(F)(F)C(F)(F)F [Example 78, METHYL 2-[N-(1'-AMINOCITRACONAMIDO)]-N-METHYL]-4-PENTAFLUOROETHYLPYRMIDINE-5-CARBOXYLATE] |
| 200 | CC1=CC(=O)N(Nc2ncc(C(=O)OC(C)(C)C)c(C(F)(F)F)n2)C1=O [Example 79, t-BUTYL 2-[N-(1'-AMINOCITRACONAMIDO)]-4-TRIFLUOROMETHYLPYRIMIDINE-5-CARBOXYLATE] |
| 100 | COC(=O)c1cnc(N(C)N2C(=O)C=C(C)C2=O)nc1C(F)(F)F [Example 81, METHYL 2-[N-(1'-AMINOCITRACONAMIDO)-N-METHYL]-4-TRIFLUOROMETHYLPYRIMIDINE-5-CARBOXYLATE] |
| 80 | COC(=O)c1cnc(NN2C(=O)C=C(C)C2=O)nc1-c1cccs1 [Example 83, METHYL 2-[N-(1'-AMINOCITRACONAMIDO)]-4-(2'-THIENYL)PYRIMIDINE-5-CARBOXYLATE] |
| 450 | CCOC(=O)c1cnc(N(Cc2ccccc2)N2C(=O)C=C(C)C2=O)nc1C(F)(F)F [Example 84, ETHYL 2-[N-(1'-AMINOCITRACONAMIDO-N-BENZYL)]-4-TRIFLUOROMETHYLPYRIMIDINE-5-CARBOXYLATE] |
| 20 | CCOC(=O)c1cnc(N(C)N2C(=O)C=C(C)C2=O)nc1-c1cccs1 [Example 85, ETHYL 2-[N-(1'-AMINOCITRACONAMIDO-N-METHYL)]-4-(2'-THIENYL)PYRIMIDINE-5-CARBOXYLATE] |
| 550 | CC1=CC(=O)N(Nc2ncc(C(=O)c3ccccc3)c(C(F)(F)F)n2)C1=O [Example 87, 5-BENZOYL 2-[N-(1'-AMINOCITRACONAMIDO)]-4-TRIFLUOROMETHYLPYRIMIDINE] |
| 500 | CCOC(=O)c1cnc(NN2C(=O)C=C(C)C2=O)nc1-c1ccsc1 [Example 88, ETHYL 2-[N-(1'-AMINOCITRACONAMIDO)]-4-(3'-THIENYL)PYRIMIDINE-5-CARBOXYLATE] |
| 200 | CCOC(=O)c1cnc(N(C)N2C(=O)C=C(C)C2=O)nc1-c1ccsc1 [Example 89, ETHYL 2-[N-(1'-AMINOCITRACONAMIDO-N-METHYL)]-4-(3-THIENYL)PYRIMIDINE-5-CARBOXYLATE] |
| 60 | CCOC(=O)c1cnc(NN2C(=O)C=C(C)C2=O)nc1-c1ccc(C)s1 [Example 90, ETHYL 2-[N-(1'-AMINOCITRACONAMIDO)]-4-[2'-(5'-METHYLTHIENYL)]PYRIMIDINE-5-CARBOXYLATE] |
| 1100 | CCOC(=O)c1cnc(NN2C(=O)C=C(C)C2=O)nc1-c1ccco1 [Example 91, ETHYL 2-[N-(1'-AMINOCITRACONAMIDO)]-4-(2'-FURANYL)PYRIMIDINE-5-CARBOXYLATE] |

| IC50 [nM] | Compound |
| --- | --- |
| 300 | CCOC(=O)c1cnc(N(C)N2C(=O)C=C(C)C2=O)nc1-c1ccc(C)s1 [Example 92, ETHYL 2-[N-(1'-AMINOCITRACONAMIDO-N-METHYL)]-4-[2'-(5'-METHYLTHIENYL)]PYRIMIDINE-5-CARBOXYLATE] |
| 800 | CCOC(=O)c1cnc(NN2C(=O)C=C(C)C2=O)nc1-c1cc2ccccc2s1 [Example 93, ETHYL 2-[N-(1'-AMINOCITRACONAMIDO)]-4-(2'-THIANAPHTHYL)PYRIMIDINE-5-CARBOXYLATE] |
| 1100 | CCN(c1ncc(C(=O)OC)c(C(F)(F)F)n1)N1C(=O)C=C(C)C1=O [Example 94, METHYL 2-[N-(1'-AMINOCITRACONAMIDO-N-ETHYL)]-4-TRIFLUOROMETHYLPYRIMIDINE-5-CARBOXYLATE] |
| 300 | CCCC(=O)N(c1ncc(C(=O)OCC)c(C(F)(F)F)n1)N1C(=O)C=C(C)C1=O [Example 95, ETHYL 2-[N-(1'-AMINOCITRACONAMIDO-N-BUTANOYL)]-4-TRIFLUOROMETHYLPYRIMIDINE-5-CARBOXYLATE] |
| 700 | CCOC(=O)c1cnc(N(C(=O)NC)N2C(=O)C=C(C)C2=O)nc1C(F)(F)F [Example 96, ETHYL 2-[N-(1'-AMINOCITRACONAMIDO)-N-(N'-METHYLCARBOXAMIDYL)]-4-TRIFLUOROMETHYLPYRIMIDINE-5-CARBOXYLATE] |
| 900 | CCOC(=O)c1cnc(N(C(=O)Cc2ccccc2)N2C(=O)C=C(C)C2=O)nc1C(F)(F)F [Example 97, ETHYL 2-[N-(1'-AMINOCITRACONAMIDO)-N-(1-OXO-2"-PHENYLETHYL]-4-TRIFLUOROMETHYLPYRIMIDINE-5-CARBOXYLATE] |
| 6000 | CCOC(=O)c1cnc(NN2C(=O)C=C(C)C2=O)nc1COC [Example 98, ETHYL 2-[N-(1'-AMINOCITRACONAMIDO)]-4-METHOXYMETHYL PYRIMIDINE-5-CARBOXYLATE] |
| 400 | CCOC(=O)c1cnc(N(C(=O)OCC)N2C(=O)C=C(C)C2=O)nc1C(F)(F)F [Example 99, ETHYL 2-[N-(1'-AMINOCITRACONAMIDO)-N-(ETHOXYCARBONYL)]-4-TRIFLUOROMETHYLPYRIMIDINE-5-CARBOXYLATE] |
| 800 | CCOC(=O)c1cnc(N(C(=O)c2ccccc2)N2C(=O)C=C(C)C2=O)nc1C(F)(F)F [Example 100, ETHYL 2-[N-(1'-AMINOCITRACONAMIDO)-N-BENZOYL]-4-TRIFLUOROMETHYLPYRIMIDINE-5-CARBOXYLATE] |
| 600 | CCc1nc(NN2C(=O)C=C(C)C2=O)ncc1C(=O)c1ccccc1 [Example 101, 5-BENZOYL 2-[N-(1'-AMINOCITRACONAMIDO)]-4-ETHYLPYRIMIDINE] |
| 400 | CCc1nc(N(C)N2C(=O)C=C(C)C2=O)ncc1C(=O)c1ccccc1 [Example 102, 5-BENZOYL 2-[N-(1'-AMINOCITRACONAMIDO)-N-METHYL]-4-ETHYLPYRIMIDINE] |
| 400 | CCOC(=O)c1cnc(N(C)N2C(=O)C=C(C)C2=O)nc1C(F)(F)C(F)(F)F [Example 103, ETHYL-2-[N-(1'-AMINOCITRACONAMIDO)-N-METHYL]-4-PENTAFLUOROETHYLPYRIMIDINE-5-CARBOXYLATE] |
| 200 | CCOC(=O)c1cnc(N(C)N2C(=O)C=C(C)C2=O)nc1-c1cc2ccccc2s1 [Example 104, ETHYL 2-[N-(1'-AMINOCITRACONAMIDO)]-4-(2'-THIANAPHTHYL)PYRIMIDINE-5-CARBOXYLATE] |
| 2400 | CCOC(=O)c1cnc(NN2C(=O)C=C(C)C2=O)nc1-c1nccs1 [Example 105, ETHYL 2-[N-(1'-AMINOCITRACONAMIDO)]-4-(2'-THIAZOLYL)PYRIMIDINE-5-CARBOXYLATE] |
| 1700 | CCOC(=O)c1cnc(N(C)N2C(=O)C=C(C)C2=O)nc1-c1nccs1 [Example 106, ETHYL 2-[N-(1'-AMINOCITRACONAMIDO)-N-METHYL]-4-(2'-THIAZOLYL)PYRIMIDINE-5-CARBOXYLATE] |
| 500 | CCCC(=O)c1cnc(N(C)N2C(=O)C=C(C)C2=O)nc1CC [Example 107, 5-BUTANOYL 2-[N-(1'-AMINOCITRACONAMIDO-N-METHYL)]-4-ETHYLPYRIMIDINE] |
| 1500 | CCOC(=O)c1cnc(NN2C(=O)C=C(C)C2=O)nc1C1CC1 [Example 108, ETHYL 2-[N-(1'-AMINOCITRACONAMIDO)]-4-CYCLOPROPYLPYRIMIDINE-5-CARBOXYLATE] |

Same assay, conditions: average of NFκB and AP-1 assays, read-out: ICm (average of the measurements obtained from the NFκB and AP-1 assays)

| IC50 [nM] | Compound |
| --- | --- |
| 120 | 4-[N-(1'-AMINOCITRACONAMIDO)]-5-(N-METHYL TETRAZOLYL)-2-(2"-THIENYL)PYRIMIDINE [Example 135] |
| 3900 | CCOC(=O)c1cnc(NN2C(=O)C(CC)=C(CC)C2=O)nc1C(F)(F)F [Example 41, ETHYL 2-[N-(1'-AMINO-3',4'-DIETHYLMALEIMIDO)]-4-TRIFLUOROMETHYLPYRIMIDINE-5-CARBOXYLATE] |
